Source: patent publication US6015577A, “Pharmaceutical compositions containing dipyridamole or mopidamol and acetylsalicylic acid or the physiologically acceptable salts thereof, processes for preparing them and their use in treating clot formation” (Thomae GmbH; Dr. Karl, priority 1986, dated 2000)

System: clot formation in vessels of the mesenterium
Assay: electrically induced clot formation in mesenteric vein, clot size monitored by intravital microscope
Format: in vivo, rat
Settings: 2.5 mg/kg acetylsalicylic acid or 5 mg/kg dipyridamole p.o. alone; FIGS. 5 and 6
Protocol: The antithrombotic activity achieved with a simultaneous oral administration, according to the invention, of 5 mg/kg of dipyridamole and 0.05 mg/kg of acetylsalicylic acid (weight ratio of dipyridamole to acetylsalicylic acid=100) and, by comparison, during sequential oral administration (according to European Application No. 85 108 761.9) of 5 mg/kg of dipyridamole and 5 mg/kg of acetylsalicylic acid to rats (FW 49) with a body weight of from 60 to 80 g before the start of the experiment was investigated by applying a clotting stimulus to vessels of the mesenterium and by monitoring the size of the clots over a period of time. Groups of 5 animals were used. […] An interval of 1 hour was left between the simultaneous oral administration of the substances according to the invention and the application of the clot or the actual carrying out of the measurements. […]
Using an intravital microscope to monitor the process, a platinum electrode was placed on an outer blood vessel wall of the mesenterium. […] The size of the clot is measured at 10 second intervals and later at 30 second intervals over a period of up to 20 minutes after the stimulation of the blood vessel and is given as the size of the clot (at right angles to the blood vessel wall) as a percentage of the internal diameter of the blood vessel.

SMILES	reduction in the clot size, single substance
OCCN(CCO)c1nc(N2CCCCC2)c2nc(N(CCO)CCO)nc(N3CCCCC3)c2n1 [Dipyridamole, 2,6-bis-(diethanolamino)-4,8-dipiperidino-(5,4-d)-pyrimidine]	do not bring about any significant reduction in the clot size
CC(=O)Oc1ccccc1C(=O)O [Acetylsalicylic acid, acetylsalicylic acid]	do not bring about any significant reduction in the clot size
